Source: PMC12113681, “Discovery, Biological Evaluation and Binding Mode Investigation of Novel Butyrylcholinesterase Inhibitors Through Hybrid Virtual Screening” (Molecules, 2025)
“Also recorded” adds a separate entry of the source. Read-outs that look alike come from different tables or passages of the source.

Key:
PC12 cells [1] = assay: Neuroprotection in H2O2-induced injury model, MTT assay; type: cell-based; settings: for neuroprotective activity: 5 to 50 μM; for viability at 50 µM: Rattus norvegicus, PC-12, read-out: cell viability
Protocol: To assess the neuroprotective potential of the compounds, an H2O2-induced injury model in PC12 cells was established. PC12 cells were seeded into 96-well plates and incubated for 24 h, as described previously. […].

[2] = target: T1, BChE (horse-serum, E.C. 3.1.1.8) (Equus caballus, UniProt P81908); assay: biochemical
T1 construct: Sigma, St. Louis, MO, USA, horse-serum, E.C; 3.1.1.8; purchased Sigma; host or cells: horse serum
Protocol: The inhibitory activity of BChE was evaluated using 96-well plates on a microplate reader (Varioskan LUX, Thermo Fisher, Waltham, MA, USA) based on a modified Ellman method. Briefly, 25 μL of BChE solution (0.2 U·mL^−1, Sigma, St. Louis, MO, USA, horse-serum, E.C. 3.1.1.8) was combined with 65 μL of phosphate buffer (PBS, 0.1 M, pH 8.0), 125 μL of 5,5′-dithio-bis(2-nitrobenzoic acid) (DTNB, 3 mM), and 10 μL of a test compound at varying concentrations. Small molecules (50 mM, Topscience) were initially dissolved in dimethyl sulfoxide (DMSO) and subsequently diluted to desired concentrations using PBS. The reaction mixture was preincubated at 37 °C for 20 min. Following this, 25 μL of butyrylthiocholine iodide (BTC, 15 mM) was added, and the absorbance was measured at 412 nm in 30-s intervals for 3 min.

PC12 cells [3] = assay: in vitro; settings: PC-12 cells
Protocol: (§1) Well-differentiated rat adrenal pheochromocytoma cells (PC12) and the corresponding culture medium (WHAA24F163) were obtained from Procell Life Technology Co., Ltd. (Wuhan, China). The culture medium was supplemented with 10% fetal bovine serum (FBS, 164210-50) and 1% antibiotics (a penicillin–streptomycin mixture). PC12 cells were seeded into sterile 96-well plates at a density of 7000 cells per well (100 μL) and incubated for 24 h in a humidified incubator at 37 °C with 5% CO2. Subsequently, the cells were treated with varying concentrations of the test compounds (10, 20, and 50 μM in 100 μL) and cultured for an additional 24 h. Cell viability was assessed using the 3-(4,5-dimethylthiazol-2-yl)-2,5-diphenyltetrazolium bromide (MTT) assay (Xavier, Wuhan, China), following protocols described in a prior study.

BChE [4] = target: T2, BChE (Equus caballus, UniProt P81908); assay: Fluorescence quenching experiment (Stern-Volmer, Van't Hoff analysis); type: binding; settings: for quenching rate constant (Kq): τ0 10^−8 s; for Kd: Ka (binding constant); for ∆H / ∆S: Van't Hoff, 298-310 K, regarded as a constant
Protocol: Then, the Stern–Volmer Equation (1) was applied to analyze their quenching mechanisms.
Their binding constants (Ka) and binding sites (n) (Table 4) with BChE were calculated using the double logarithmic Equation (2) (Figure 5G,H).
Thermodynamic parameter analysis offers valuable insights into the predominant interaction forces governing the binding process between ligand and protein, which may encompass hydrogen bonding, electrostatic interactions, hydrophobic effects, van der Waals forces, and π-effects. By applying the Van’t Hoff Equation (3) and the Gibbs–Helmholtz Equation (4), the thermodynamic parameters—including change (ΔS), enthalpy change (ΔH), and Gibbs free energy change (ΔG)—for the interactions of piboserod and Rotigotine at various temperatures.
Fluorescence quenching experiment. The fluorescence intensity of the inhibitor–BChE complex was measured using a microplate reader with an all-black 96-well plate at three different temperatures (298, 304, and 310 K). The excitation wavelength was set to 280 nm, and the emission spectrum was scanned over the range of 320–460 nm with a slit width of 5 nm. The BChE concentration was maintained constant at 5 U·mL^−1, while the compound concentration was varied in a gradient (0 to 50 μM). After mixing the compound and BChE, the samples were incubated at the designated temperature for 30 min prior to measurement. A PBS solution was used as a blank to account for background fluorescence and ensure accurate correction of the fluorescence intensity measurements.

BChE [5] = target: T2, BChE; assay: BChE enzyme kinetic study (Lineweaver-Burk); type: biochemical; parameters: Sigma, St. Louis, MO, USA, horse-serum, E.C; 3.1.1.8; purchased Sigma; host or cells: horse serum; settings: for inhibition type: Lineweaver-Burk plots; for reversibility of inhibition: plots of v vs [BChE] at different inhibitor concentrations
Protocol: Kinetic studies were performed to clarify the inhibition mechanism of piboserod and Rotigotine. Figure 4A,B illustrates the relationship between BChE concentration ([BChE]) and catalytic rate (v) at different inhibitor concentrations ([I]). […] Lineweaver–Burk plots were used to characterize their inhibition types. […]. The inhibition constant (Ki) values were calculated based on Lineweaver–Burk secondary plots (Figure 4C,D). […]. […].
Kinetic studies were conducted to measure reaction rates using the same methodology as in the enzyme inhibition experiments. […]. The relationship between reaction rates and enzyme concentrations was used to assess whether the inhibition was reversible. Additionally, reaction rates (v, △OD417 ·min^−1) were measured at a constant BChE concentration (0.2 U·mL^−1) while varying substrate concentrations (0.05, 0.1, 0.2, 0.4, 0.8 mM). A double-reciprocal Lineweaver–Burk plot of reaction rate versus substrate concentration was generated to elucidate the inhibition type based on the intersection points of the curves. Common inhibition types were identified as follows: competitive (intersects on the Y-axis), non-competitive (intersects on the X-axis), uncompetitive (parallel lines), and mixed (intersects in the second or third quadrant). […]

in vitro = settings: rat
Protocol: as §1

[6] = PC-12 cells, hydrogen peroxide injury

T2 sequence (P81908 whole entry): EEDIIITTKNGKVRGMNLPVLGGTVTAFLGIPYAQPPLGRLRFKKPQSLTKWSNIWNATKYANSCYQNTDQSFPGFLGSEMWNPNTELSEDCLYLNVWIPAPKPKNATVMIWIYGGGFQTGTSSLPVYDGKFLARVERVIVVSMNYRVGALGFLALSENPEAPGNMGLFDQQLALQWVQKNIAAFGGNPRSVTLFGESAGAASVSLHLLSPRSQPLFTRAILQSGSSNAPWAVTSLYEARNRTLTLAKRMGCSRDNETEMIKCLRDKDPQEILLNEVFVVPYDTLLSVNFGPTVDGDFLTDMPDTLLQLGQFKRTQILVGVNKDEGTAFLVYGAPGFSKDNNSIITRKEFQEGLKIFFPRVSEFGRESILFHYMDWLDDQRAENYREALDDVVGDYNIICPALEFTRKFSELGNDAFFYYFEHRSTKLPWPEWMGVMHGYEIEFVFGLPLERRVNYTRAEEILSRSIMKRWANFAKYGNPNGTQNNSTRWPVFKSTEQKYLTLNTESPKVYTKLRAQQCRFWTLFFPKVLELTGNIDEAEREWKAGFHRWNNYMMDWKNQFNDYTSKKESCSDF
T1 sequence (P81908 whole entry): as above

| Compound | IC50 [2] [µM] | neuroprotective activity (PC12 cells [1]; [6]) | viability at 50 µM (PC12 cells [1]) [%] | Ksv (BChE [4]; 298 K) [L/mol] | n (binding sites) (BChE [4]; 298 K) | ∆G (BChE [4]; 298 K) [kcal/mol] | quenching rate constant (Kq) (BChE [4]; 298 K) [M⁻¹ s⁻¹] | Ksv (BChE [4]; 304 K) [L/mol] | n (binding sites) (BChE [4]; 304 K) | ∆G (BChE [4]; 304 K) [kcal/mol] | Ksv (BChE [4]; 310 K) [L/mol] | n (binding sites) (BChE [4]; 310 K) | Kd (BChE [4]; 298 K) [µM] | Kd (BChE [4]; 304 K) [µM] | Kd (BChE [4]; 310 K) [µM] | ∆H (BChE [4]) [kcal/mol] | ∆S (BChE [4]) [J·mol^−1·K^−1] | Ki (BChE [5]) [µM] | inhibition type (BChE [5]) | reversibility of inhibition (BChE [5]) | further results |
| --- | --- | --- | --- | --- | --- | --- | --- | --- | --- | --- | --- | --- | --- | --- | --- | --- | --- | --- | --- | --- | --- |
| CN1C[C@H](CNC(=O)OCc2ccccc2)C[C@@H]2c3cccc4c3c(cn4C)C[C@H]21 [Metergoline] | 18.4 ± 3.29 | – | – | – | – | – | – | – | – | – | – | – | – | – | – | – | – | – | – | – | neuroprotective effect (PC12 cells [1]; PC-12 cells, hydrogen peroxide injury, low concentrations (5–10 μM)): modest neuroprotective effects; neurotoxicity (PC12 cells [3]; lowest concentration (10 μM)): no neurotoxicity; cytotoxicity (PC12 cells [3]; maximum concentration): higher cytotoxicity than that of Tacrine |
| CCCN(CCc1cccs1)[C@H]1CCc2c(O)cccc2C1 [Rotigotine] | 12.8 ± 4.22 | significant neuroprotective activities | 70 | 2640 | 1.066 | -5.067 | 2.64e+11 | 2250 | 1.022 | -4.787 | 1540 | 0.975 | 19.7 | 34.5 | 68.1 | -18.98 | −195.34 | 6.76 | non-competitive inhibitor; also recorded: non-competitive inhibition | reversibly inhibit BChE | – |
| COc1cc2c(NC3CCN(C)CC3)nc(N3CCCN(C)CC3)nc2cc1OCc1ccccc1 [TM2-115] | – | – | – | – | – | – | – | – | – | – | – | – | – | – | – | – | – | – | – | – | IC50 ([2]; read-out: IC50): ~50 µM |
| Nc1c2c(nc3ccccc13)CCCC2 [Tacrine] | – | – | – | – | – | – | – | – | – | – | – | – | – | – | – | – | – | – | – | – | viability at 50 µM (in vitro): 65% |
| CCCCN1CCC(CNC(=O)c2c3n(c4ccccc24)CCCO3)CC1 [piboserod] | 15.3 ± 3.84 | significant neuroprotective activities | 66 | 5250 | 1.052 | -5.373 | 5.25e+11 | 4720 | 1.035 | -5.308 | 4250 | 1.014 | 11.6 | 14.9 | 20.4 | -8.549 | −44.61 | 10.7 | mixed inhibitor; also recorded: mixed-type inhibition | reversibly inhibit BChE | ∆G (BChE [4]; 310 K): -5.244 kcal/mol; α value (ratio of non-competitive to competitive inhibition constants) (BChE [5]; Lineweaver-Burk secondary plots): 3.01 |
